In paper PMC9950143 (Scientific Reports, 2023):
“Also recorded” adds a separate entry of the source. Where a name gives a salt, the structure may show the parent alone.

Experiments:
SUDV Boniface [1] = experiment: microbe, parasite or virus in culture; format: cell-based, Sudan virus; details: for EC50: Sudan ebolavirus, HeLa, read-out: Activity against SUDV EC50
[2] = tested on: SUDV Boniface and MARV Ci67; format: cell-based, Sudan virus, Marburg virus
[3] = human plasma maximum concentration; ref [1]–[19]; cited from earlier work
West Niles virus (WNV) = details: read-out: EC50 against West Niles virus (WNV); cited from earlier work
dengue virus-2 (DENV-2) = details: read-out: EC50 against dengue virus-2 (DENV-2); cited from earlier work
yellow fever virus (YFV) = details: read-out: EC50 against yellow fever virus (YFV); cited from earlier work
HCV 1b replicon = details: read-out: EC50 against HCV 1b replicon (early studies); cited from earlier work
[4] = ref PubChem compound summaries; cited from earlier work
MARV Ci67 [5] = experiment: organism not typed; format: cell-based, Marburg virus; details: HeLa, read-out: Activity against MARV EC50
in vitro [6] = details: human
in vitro [7] = details: human; remark: listed apart in the source
SUDV Boniface [8] = format: cell-based, Sudan virus
MARV Ci67 [9] = format: cell-based, Marburg virus
[10] = in vivo; cited from earlier work

Row | Compound | RDV CC50 when combination (HeLa cells; human) | RDV CC50 when in combination (HeLa cells; human) | Drug-drug interaction? (RDV potency) [2] | Cmax [3] | Plasma Protein Binding [4] | effect on RDV potency in combination studies [2] | other results
1 | CCN(CC)Cc1cc(Nc2ccnc3cc(Cl)ccc23)ccc1O [Amodiaquine, Amodiaquine hydrochloride dihydrate] | > 2.5 µM | > 2.5 µM | Enhanced^5 for SUDV | 32.3 [2] ng/mL | – | – | fold lowering of RDV EC50 against SUDV (SUDV Boniface [1]): > 5 folds
2 | N#C[C@@]1(c2ccc3c(N)ncnn23)O[C@H](CO)[C@@H](O)[C@H]1O [GS-441524] | – | – | – | – | – | – | EC50 (West Niles virus (WNV)): > 30 µM; EC50 (dengue virus-2 (DENV-2)): 9.46 µM; EC50 (yellow fever virus (YFV)): 11 µM; EC50 (HCV 1b replicon): 3.1 µM
3 | C[C@H]1[C@H](OC(=O)CCC(=O)O)O[C@@H]2O[C@@]3(C)CC[C@H]4[C@H](C)CC[C@@H]1[C@@]24OO3 [Artesunate] | > 2.5 µM | – | No | 3260 [4] ng/mL | 93% | – | –
4 | [H]/N=C(\N/C(=N/[H])Nc1ccc(Cl)cc1)NC(C)C [Proguanil, Proguanil hydrochloride] | > 2.5 µM | > 2.5 µM | No | 918 [5] ng/mL | – | minimal effect on RDV potency | –
5 | Cc1nccn1CC1CCc2c(c3ccccc3n2C)C1=O (stereo not drawn) [Ondansetron, ondansetron hydrochloride dihydrate] | > 2.5 µM | > 2.5 µM | No | 106 [13] ng/mL | 73% | minimal effect on RDV potency | –
6 | CC(C)OC(=O)OCOP(=O)(CO[C@H](C)Cn1cnc2c(N)ncnc21)OCOC(=O)OC(C)C [Tenofovir disoproxil fumarate] | > 2.5 µM | > 2.5 µM | No | 300 [18, 19] ng/mL | <1% | minimal effect on RDV potency | –
7 | Nc1ccn([C@@H]2CS[C@H](CO)O2)c(=O)n1 [Lamivudine] | > 2.5 µM | > 2.5 µM | No | 2600 [15] ng/mL | <36% | minimal effect on RDV potency | –
8 | CCCCN(CCCC)CC(O)c1cc(Cl)cc2c1-c1ccc(Cl)cc1/C2=C/c1ccc(Cl)cc1 (stereo not drawn) [Lumefantrine] | > 2.5 µM | > 2.5 µM | Not antagonistic | 6300 [10] ng/mL | – | – | EC50 (MARV Ci67 [5]): 16.6 ± 7.3 µM; EC50 (SUDV Boniface [1]): 9.6 ± 0.52 µM; CC50 at 48 h (in vitro [6]): 37.3 ± 0.9 µM; CC50 (in vitro [6]; CC50 (SUDV assay)): 40 ± 1.2 µM
9 | CO/N=C(\C(=O)N[C@@H]1C(=O)N2C(C(=O)O)=C(CSc3nc(=O)c(=O)[nH]n3C)CS[C@H]12)c1csc(N)n1 [Ceftriaxone, ceftriaxone disodium salt hemi(heptahydrate)] | > 2.5 µM | > 2.5 µM | Not antagonistic | 291000 [7] ng/mL | – | – | CC50 (SUDV assay) (HeLa cells; human): 20.9 ± 10.1 µM
10 | COc1ccc2[nH]c([S+]([O-])Cc3ncc(C)c(OC)c3C)nc2c1 (stereo not drawn) [Omeprazole] | > 2.5 µM | > 2.5 µM | No | 598 [12] ng/mL | – | minimal effect on RDV potency | –
11 | CC(C)c1nc(CN(C)C(=O)N[C@H](C(=O)N[C@@H](Cc2ccccc2)C[C@H](O)[C@H](Cc2ccccc2)NC(=O)OCc2cncs2)C(C)C)cs1 [Ritonavir] | – | – | No | 1271 [17] ng/mL | – | minimal effect on RDV potency | –
12 | Cc1cccc(C)c1OCC(=O)N[C@@H](Cc1ccccc1)[C@@H](O)C[C@H](Cc1ccccc1)NC(=O)[C@H](C(C)C)N1CCCNC1=O [Lopinavir] | > 2.5 µM | > 2.5 µM | No for MARV; also recorded: Not antagonistic | – | >98% | – | EC50 (MARV Ci67 [5]): > 100 µM; EC50 (SUDV Boniface [1]): 2.32 ± 0.58 µM; CC50 at 48 h (in vitro [6]): > 100 µM; CC50 (in vitro [6]; CC50 (SUDV assay)): 34.1 ± 0.9 µM
13 | O=C1Nc2ccc(Cl)cc2[C@@](C#CC2CC2)(C(F)(F)F)O1 [Efavirenz] | – | – | Not antagonistic | 12900 [14] ng/mL | 99.5–99.75% | – | EC50 (MARV Ci67 [5]): 19.8 ± 0.1 µM; cytotoxicity of combination with RDV (HeLa cells): Enhanced cytotoxicity; EC50 (SUDV Boniface [1]): 2.24 ± 0.57 µM; CC50 at 48 h (in vitro [6]): 15.1 ± 4.1 µM; CC50 (in vitro [6]; CC50 (SUDV assay)): 20.7 ± 10.1 µM; CC50 (in vitro [6]; CC50 when tested alone): 14 to 28 µM
14 | CO[C@H]1O[C@@H]2O[C@@]3(C)CC[C@H]4[C@H](C)CC[C@@H]([C@H]1C)[C@@]24OO3 [Artemether] | > 2.5 µM | > 2.5 µM | No | 198 [3] ng/mL | 95.4% | minimal effect on RDV potency | –
15 | O=C(O)c1cn(C2CC2)c2cc(N3CCNCC3)c(F)cc2c1=O [Ciprofloxacin] | – | – | Enhanced for SUDV | – | – | – | –
16 | CN1C(=O)CN=C(c2ccccc2)c2cc(Cl)ccc21 [Diazepam] | – | – | No | – | – | minimal effect on RDV potency | –
17 | O=C1C(O)=C([C@H]2CC[C@H](c3ccc(Cl)cc3)CC2)C(=O)c2ccccc21 [Atovaquone] | – | – | No | 8300 [5, 6] ng/mL | 99.9% | minimal effect on RDV potency | cytotoxicity of combination with RDV (HeLa cells): Enhanced cytotoxicity; CC50 (in vitro [6]; CC50 when tested alone): 8 to 17 µM
18 | Cc1ncc([N+](=O)[O-])n1CCO [Metronidazole] | > 2.5 µM | > 2.5 µM | No | 5100 [11] ng/mL | 20% | minimal effect on RDV potency | –
19 | CC(=O)Nc1ccc(O)cc1 [Acetaminophen] | > 2.5 µM | > 2.5 µM | No | 11400 [1] ng/mL | 10–25% | minimal effect on RDV potency | –
20 | NC(=O)c1nc(F)c[nH]c1=O [Favipiravir, 6-fluoro-3-oxo-3,4-dihydropyrazine-2-carboxamide] | – | – | – | – | – | – | CC50 (in vitro [7]): > 750 µM; maximum fold reduction of favipiravir EC50 in combination with RDV (SUDV Boniface [8]): ≥ 21 fold; maximum fold reduction of favipiravir EC50 in combination with RDV (MARV Ci67 [9]): ≥ 4.8 fold; decrease of plasma median concentration on Day 4 [10]: ~ 50%
